The values below come from US20260263443A1, “COMPOUND FOR TREATMENT OF FEMALE SEXUAL DYSFUNCTION” (Initiator Pharma A/S, priority 2022, published 2026).

In one series the test system is depressed FSL rats. Description: Thermographic measurement of genital temperature in female rats. Format: in vivo, rat. As for the experimental part: (§1) Animals: The experimental setup was run in two different sets of measurement procedures to avoid a variation given by each other. The first set of experiments was run in control female rats, and the second set was run in a depressed model called Flint Sensitive Line (FSL), which shares molecular similarities to major depressive patients.
(§2) Anesthesia and general surgical procedure: The rats were injected intraperitoneally with pentobarbital 50 mg/Kg. After 10 min in dark conditions a pinch of the interdigital area confirmed unresponsive of reflexes and the animal was prepared on a table, where legs were semi-extended by tape to fix the animal. The areas of interest (abdomen-inguinal and neck) were shaved and clean-disinfected with water and ethanol. After each study was completed, the animal was sacrificed by an overdose of pentobarbital, and the Atlanto-occipital joint was severed to guarantee a painless procedure for the animal.
A thermographic FLIR camera (E96, InfraTec, Germany, FIG. 1) was positioned at 50 cm distance from the area of interest (FIG. 1C). Three areas (thorax, vagina, and urethral-clitoris) of interest were recorded by digital markers positioned using the Research Studio-FLIR, and data were extracted and imported to Excel.

The target of series [1] is T1, noradrenaline (NA) reuptake in synaptosomes (Rattus norvegicus, UniProt Q63380).
T1 construct: in synaptosomes as described in WO 97/16451; from tissue
T1 sequence (Q63380 1-617): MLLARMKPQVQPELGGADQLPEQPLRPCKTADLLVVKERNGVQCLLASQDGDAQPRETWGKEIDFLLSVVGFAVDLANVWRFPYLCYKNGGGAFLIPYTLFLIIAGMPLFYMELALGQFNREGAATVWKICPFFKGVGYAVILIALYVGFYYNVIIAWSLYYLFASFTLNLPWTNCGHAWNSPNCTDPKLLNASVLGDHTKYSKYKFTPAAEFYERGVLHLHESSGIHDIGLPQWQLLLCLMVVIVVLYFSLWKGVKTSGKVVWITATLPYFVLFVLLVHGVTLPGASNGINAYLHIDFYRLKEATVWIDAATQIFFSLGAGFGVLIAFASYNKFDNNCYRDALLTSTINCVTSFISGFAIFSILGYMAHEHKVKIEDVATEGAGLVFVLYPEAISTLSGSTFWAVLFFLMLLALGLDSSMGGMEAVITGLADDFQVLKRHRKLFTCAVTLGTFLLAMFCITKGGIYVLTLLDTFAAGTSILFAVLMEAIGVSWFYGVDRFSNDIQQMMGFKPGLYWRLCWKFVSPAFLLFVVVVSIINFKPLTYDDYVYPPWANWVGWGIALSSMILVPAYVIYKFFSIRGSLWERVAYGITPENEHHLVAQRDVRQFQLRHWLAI
The note with it: reported in U.S. Pat. No. 9,133,184 B1; cited from earlier work.

The test system of series [2] is Female Sprague Dawley rats. Put plainly: Sexual (paracopulatory) behaviour of estrus-synchronized female rats paired with male rats. Format: in vivo, rat. As to the method: Animals: Female Sprague Dawley rats (12-15 weeks old) were housed in the animal facility in Universal Euro Ill type long width cages with standard wood bedding and space for 2 rats with a clean environment, and a comfortable temperature (22-23° C.) with 12:12 h light-dark cycle starting at 11 am and they had free access to food and tap water.
Synchronization of the sexual cycle in estrus of female rats: Female Sprague Dawley rats with an average weight of 250 g were synchronized in the estrus phase of the sexual cycle by injecting with 250 μg prostaglandin F2α (PGF2α) subcutaneously at day 0 and day 3.
To investigate the sexual behavior, the synchronized female rats were paired with trained male rats and behaviour recorded by two cameras. The videos were quantified by a trained operator blinded for the treatments.
Data analysis and statistics: Statistical differences between vehicle, apomorphine and two different doses of IP2015 were analysed using one-way analysis of variance (ANOVA) followed by Tukey post-test. The assumptions of the models were investigated by inspecting Q-Q plots and data were logarithmically transformed when necessary in order to generate a Gaussian-distributed data set. In case where the data were skewed, the Brown-Forsythe test was applied. The ROUT method (Q=1%) was used to exclude data from the analysis. A P<0.05 was considered statistically significant. Post-tests were only done if F was significant and there was no variance inhomogeneity. All statistical analyses were performed using GraphPad Prism 9.5 software (GraphPad Software, CA, USA).

Series [3] relates to female Sprague Daley rats. Description: Laser Doppler measurement of clitoral blood flow in anaesthetized female rats. Format: in vivo, rat. As to the method:
as §1, §2
Measurements of clitoral blood flow and genital temperature: A suture Nylon 4-0 with a needle was used to extend the urethra opening and expose the mucosa. […] A calibrated laser Doppler flow probe (VP1T, Moor instruments-UK) was used to measure on the front-side of the clitoris, which was connected to the laser Doppler flow monitor; MOORVMS-LDF2 (Moor instruments-UK). A laser Doppler probe was positioned and fixed to a base and a crocodile clamp in order to avoid any movement. The tip of the calibrated probe was immersed in a water-based gel in the exposed area of the urethra-clitoris (FIG. 1B).
A calibrated laser Doppler flow probe (VP1T, Moor instruments-UK) was used to measure on the front-side of the clitoris, which was connected to the laser Doppler flow monitor; MOORVMS-LDF2 (Moor instruments-UK). […] The infusion protocol was performed in sets of 1 min infusion +4 min of further recording of blood flow changes recorded by the system. Electrical field stimulation of the cavernous nerve to the clitoris was utilized as a positive control as described below.
Measurements of clitoral blood flow following electrical stimulation of the cavernous nerve to the clitoris: Through a lower abdominal incision, the cavernous nerve to clitoris was isolated, and electrical stimulation was performed with a slender bipolar platinum electrode, which was connected to a S48 stimulator (Grass Instrument Co., Boston, MA, U.S.A.). To investigate whether stimulation of the nerve leads to hemodynamic changes in the clitorial tissue, the nerve was stimulated as previously described for male rats, with parameters eliciting the maximum amplitude of response (square wave pulses of 6 Volts, 10 Hz, 1 ms for 30 s), and flow was measured with laser Doppler. Clitoral blood flow was measured via laser Doppler as aforementioned.

In series [4] the target is T2, dopamine (DA) reuptake in synaptosomes (Rattus norvegicus, UniProt P23977).
T2 construct: in synaptosomes as described in WO 97/16451; from tissue
T2 sequence (P23977 whole entry): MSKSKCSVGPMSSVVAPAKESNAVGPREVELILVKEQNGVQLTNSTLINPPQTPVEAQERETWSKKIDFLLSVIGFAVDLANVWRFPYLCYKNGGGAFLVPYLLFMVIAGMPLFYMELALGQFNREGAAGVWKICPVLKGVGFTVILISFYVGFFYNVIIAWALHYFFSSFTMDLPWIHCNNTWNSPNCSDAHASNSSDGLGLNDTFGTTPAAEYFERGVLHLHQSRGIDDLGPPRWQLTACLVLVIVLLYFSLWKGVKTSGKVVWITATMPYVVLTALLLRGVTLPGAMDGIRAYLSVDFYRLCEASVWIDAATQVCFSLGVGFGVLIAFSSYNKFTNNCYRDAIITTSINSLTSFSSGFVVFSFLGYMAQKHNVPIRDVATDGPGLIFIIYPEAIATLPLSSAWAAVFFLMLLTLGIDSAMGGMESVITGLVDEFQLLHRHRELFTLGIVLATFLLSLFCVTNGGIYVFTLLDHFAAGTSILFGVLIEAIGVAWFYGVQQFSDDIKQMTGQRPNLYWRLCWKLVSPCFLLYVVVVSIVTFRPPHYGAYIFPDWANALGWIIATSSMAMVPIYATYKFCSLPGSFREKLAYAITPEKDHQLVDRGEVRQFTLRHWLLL
Description: Inhibition of dopamine (DA) reuptake in synaptosomes. Format: biochemical. The note with it: 3H-DA, read-out: DA-uptake IC50. As to the method: (§3) Compounds were tested for their ability to inhibit the reuptake of the monoamine neurotransmitters dopamine (DA), noradrenaline (NA), and serotonin (5-HT) in synaptosomes as described in WO 97/16451 (NeuroSearch A/S).
(§4) The test values are given as IC50 (the concentration (μM) of the test substance which inhibits the specific binding of ^3H-DA, ^3H-NA, or ^3H-5-HT by 50%).

For series [5], the system named is female Sprague Daley rats. Put plainly: Mean arterial pressure and heart rate in anaesthetized female rats. It is filed as in vivo, rat. Particulars: infusion 0.3 to 10 mg/kg, versus vehicle. As to the method: Measurements mean arterial pressure and heart rate: The anaesthetized rats breathed spontaneously and body temperature was monitored continuously, and maintained at 37.5° C. by placing them on a heating blanket. A heparinized (100 IE mL-1) polyethylene (PE) catheter (PE-50) connected to a pressure transducer (Disposable BP Transducer, AD Instruments, UK) was introduced into the carotid artery to measure MAP. Following a stabilization period of 10-20 min, continuous direct measurements of mean arterial pressure (MAP) and heart rate (HR) were obtained, registered, and analysed on a computerized data acquisition system (PowerLab, ADInstruments).

In series [6] the target is T1, noradrenaline (NA) reuptake in synaptosomes. Put plainly: Inhibition of noradrenaline (NA) reuptake in synaptosomes. It is filed as biochemical. The note with it: 3H-NA, read-out: NA-uptake IC50. As to the method: as §3, §4
Series [7] has as its target T2, dopamine (DA) reuptake in synaptosomes. Particulars: reported in U.S. Pat. No. 9,133,184 B1; cited from earlier work.
[8] abbreviates: depressed FSL rats, infusion of increasing doses 0.3-10 mg/Kg, thermography 4x zoom.
[9] abbreviates: infusion 0.3 to 10 mg/kg via jugular vein.
The mark [10] stands for this setting: infusion 0.3 to 10 mg/kg via jugular vein, laser Doppler.

Usually IC50 stands for the point on the concentration scale where inhibition reaches its midpoint.

Counter-ions that a name gives are not always drawn. Like-named read-outs stand apart in the source and are kept apart here.

As to `COc1cc2ccc(O[C@@H]3C[C@H]4CC[C@@H](C3)N4)cc2oc1=O` [IP2015, exo-7-[(8-azabicyclo[3.2.1]octan-3-yl)oxy]-3-methoxy-chromen-2-one hydrochloride], in the series on depressed FSL rats (setting [8]), the “temperature in the clitoral area” value was “dose-dependent increases” and the “temperature in the vagina” value is listed as “dose-dependent increases”. In the series on depressed FSL rats (during infusion of IP2015), the “core temperature (anal thermometer)” value is “unchanged”. Moreover, the 50% inhibitory concentration (IC50) in series [1] was 3.8 nM. For the same compound, the “number of hops compared to apomorphine” value in series [2] (10 mg/kg) was “increased”. Further, in series [2] (1 and 10 mg/kg), the “darts compared with vehicle and apomorphine” value was “dose-dependently increased”. Also, in series [2] (single injection, 1 and 10 mg/kg), the ear wiggling result is reported as “did not change”. In addition, in series [3] (setting [9]), the “average clitoral blood flow compared to vehicle” value is reported as “significantly increased” and the “peak clitoral blood flow compared to vehicle” value is given as “significantly increased”. In series [3] (setting [10]), the “duration of blood flow in the clitoral area” value is “increased”, the “frequency of blood flow in the clitoral area” value is given as “increased” and the “magnitude of blood flow in the clitoral area” value is recorded as “increased”. Besides, in series [3] (laser Doppler trace, electrical stimulation of cavernous nerve gave 4.31 V), the “Peak clitoral blood flow following infusion” value came to 4.49 V. The IC50 in series [4] is 70 nM. Moreover, in series [5], the “heart rate (HR)” value is “significantly increased” and the “mean arterial pressure (MAP)” value was “comparable to vehicle”. Besides, in series [6], the IC50 was determined as 3.8 nM. Also, the IC50 in series [7] was 70 nM.
Turning to `CN1CCc2cccc3c2[C@H]1Cc1ccc(O)c(O)c1-3` [apomorphine, reference compound], in series [2] (0.25 mg/kg), the “paracopulatory parameters (hops, ear wiggling, darts)” value is “did not change”.
